Data set [1] can be described thus: Viability assay: effect of selected compounds on viability. In kind it is cell-based. The settings on record: for viability at 1 µM: 1.0 μM compound; for viability at 10 µM: 10 μM compound.
In data set [2] the test system is high metastatic (DU145LN4) prostate cancer cells. Nature of the data set: Apoptosis by PARP-1 and Caspase-3 blot after 48 h treatment. As to conditions: 48 hours after treatment. Type of data set: cell-based. The procedure:
(§1) Cells were seeded in 6-well dishes at 50% confluence. Cells were treated with the compound OBD9 after 24 hours. 48 hours later, cells were lysed with lysis buffer and protein was collected and quantified with the BCA assay (Invitrogen). 20 micrograms of protein were loaded on 10% polyacrylamide gels. The gels were blotted onto nitrocellulose and stained with rabbit antibody to PARP-1 and Caspase-3 (both from Cell Signaling) and then visualized with goat, anti-rabbit HRP-conjugated antibody and HRP conjugated GAPDH.

For data set [3], the system named is parental (DU145) prostate cancer cells. The data set is described as above. In kind it is cell-based. As to conditions: 48 hours after treatment. The protocol:
as §1

Another data set concerns tubulin. As to the kind of experiment: Tubulin polymerization assay (Cytoskeleton Inc. kit, fluorescent reporter). Type of data set: biochemical. The settings on record: fluorescence-based polymerization kinetics. The procedure:
Tubulin polymerization was measured using the tubulin polymerization assay kit from Cytoskeleton Inc., which measures tubulin polymerization kinetic via fluorescent enhancement to the incorporation of a fluorescent reporter into microtubules as polymerization takes place.

Data set [4] has as its system PC3M-prostate cancer cells. As to the kind of experiment: Imaging of microtubule stability by tubulin staining and confocal microscopy. Type of data set: cell-based, human. As to conditions: PC3M cells, 24, 48 and 72 hours. The protocol: Cells were seeded on glass coverslips. 24 hours later, cells were treated with compound OBD9. After the indicated times (24 hours, 48 hours, and 72 hours), cells were fixed with paraformaldehyde (4% in PBS), permeabilized Triton-X100 (0.02% in Phosphate buffered saline), then stained with mouse antibody to human tubulin (1:200 dilution) and then with 1:400 goat anti-mouse IgC (Invitrogen) and viewed via confocal microscopy at (63× objective).

For orientation: viability means a read-out of living cells in per cent, often relative to untreated cells. For `COC(=O)Nc1nc2cc(C(=O)c3ccc(N(C)C4COC4)cc3)ccc2[nH]1` [Compound 9], in data set [1], the viability at 1 µM is 34.9% and the viability at 10 µM came out at 34.3%. For the same compound, in data set [2], the “apoptosis induction (PARP-1, Caspase-3)” value is listed as “induces apoptosis”. For the same compound, the “apoptosis induction (PARP-1, Caspase-3)” value in data set [3] is “induces apoptosis”. The “effect on tubulin polymerization” value in the data set with tubulin was “disrupts (inhibits) tubulin polymerization”. For the same compound, in data set [4], the “effect on microtubule (tubulin) stability” value is recorded as “interferes with microtubule (tubulin) stability”.
In data set [1], `COC(=O)Nc1nc2cc(Oc3cccc(N4CCN(C)CC4)n3)ccc2[nH]1` [Compound 12] had a viability at 1 µM of 94.5% and a viability at 10 µM of 35.2%.
In the case of `COC(=O)Nc1nc2cc(Oc3cccc(N4CCN(C)CC4)c3)ccc2[nH]1` [Compound 13], in data set [1], the viability at 1 µM was found to be 80.9% and the viability at 10 µM is 49.1%.
In the same order, the values of `CCCSc1ccc2[nH]c(NC(=O)OCCN(C)C)nc2c1` [Compound 15] are 97.4% and 35.3%.
On the same counts, the results for `CCCSc1ccc2[nH]c(NC(=O)OCCCN(C)C)nc2c1` [Compound 16] are 90.1% and 90.3%.
For the compound `CN(C)CCCOC(=O)Nc1nc2cc(C(=O)c3ccc(F)cc3)ccc2[nH]1` [Compound 17], in data set [1], the viability at 1 µM is 93.9% and the viability at 10 µM was 84.8%.

(Values after patent publication US11697640B2, “Compounds for treating proliferative diseases” (Children's Medical Center Corporation, priority 2015, dated 2023).)
